The values below come from patent publication US12338203B2 (TAISHO PHARMACEUTICAL CO., LTD., priority 2019, dated 2025).

SMILES strings stand for the structures.

T1 sequence (Q92633 whole entry): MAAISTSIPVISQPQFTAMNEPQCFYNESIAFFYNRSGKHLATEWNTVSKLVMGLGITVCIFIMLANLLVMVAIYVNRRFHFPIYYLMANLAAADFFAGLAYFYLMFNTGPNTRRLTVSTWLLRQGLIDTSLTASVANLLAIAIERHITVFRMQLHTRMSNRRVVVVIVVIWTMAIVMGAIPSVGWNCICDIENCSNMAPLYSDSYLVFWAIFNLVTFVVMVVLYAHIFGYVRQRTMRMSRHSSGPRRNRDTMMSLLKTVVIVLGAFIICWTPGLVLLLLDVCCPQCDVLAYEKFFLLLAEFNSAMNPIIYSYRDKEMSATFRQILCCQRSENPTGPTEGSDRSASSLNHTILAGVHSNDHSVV

The experiment has as its target T1, human LPAR1 (Homo sapiens, UniProt Q92633).
T1 construct: expressed in transfected cells
The experiment is described as follows: Test Example 1: antagonism against response of LPA-induced increase in intracellular Ca2+ concentration in RH7777 cells stably expressing human LPAR1. As to conditions: RH7777 cells stably expressing human LPAR1; Fluo-4 fluorescence, FDSS6000; read-out: IC50 value (concentration producing 50% antagonism against response of LPA-induced increase in intracellular Ca2+ concentration) (converted). The class given is cell-based. The method, boiled down:
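RH7777 cells stably transfected with human LPAR1 were preincubated with test compound 30 min at 37 °C in HBSS/20 mM HEPES/probenecid/0.05% BSA buffer, pH 7.4, then LPA-stimulated.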
`CCOc1cc([C@@H](C)N(CCCC(F)(F)c2ccccc2)C(=O)NC2(C(=O)O)CCC2)cc(OCC)c1C(C)=O` [Example 4-50]: the IC50 is 1.21 nM.

Consider `CCOc1cc([C@@H](C)N(CCCC(F)(F)c2ccccc2)C(=O)NC2(C(=O)O)CCC2)cc(OCC)c1C1CC1` [Example 4-51], for which the IC50 is 1.11 nM.

In the case of `CCOc1cc([C@@H](C)N(CCCC(F)(F)c2ccccc2)C(=O)NC2(C(=O)O)CCC2)cc(OCC)c1C(C)O` (stereo partly shown) [Example 4-52], the IC50 is 2.68 nM.

For `CCOc1cc([C@@H](C)N(CCCC(F)(F)c2ccccc2)C(=O)NC2(C(=O)O)CCC2)cc(OCC)c1C(C)O` (stereo partly shown) [Example 4-53], the IC50 was 1.72 nM.

As for `CCOc1c(C(C)=O)ccc([C@@H](C)N(CCCC(F)(F)c2ccccc2)C(=O)NC2(C(=O)O)CCC2)c1C` [Example 4-54], the IC50 was 3.75 nM.

Turning to `CCOc1cc([C@@H](C)N(CCCC(F)(F)c2ccccc2)C(=O)NC2(C(=O)O)CC(F)(F)C2)cc(OCC)c1C(C)=O` [Example 4-56], the IC50 is 1.33 nM.

Turning to `CCOc1cc([C@@H](C)N(CCCC(F)(F)c2ccccc2)C(=O)NC2(C(=O)O)CC(F)(F)C2)cc(OCC)c1C1(O)CC1` [Example 4-57], the IC50 is 4.47 nM.

For `CCOc1cc([C@@H](C)N(CCCC(F)(F)c2ccccc2)C(=O)NC2(C(=O)O)CC(F)(F)C2)cc(OCC)c1C` [Example 4-58], the IC50 is 1.15 nM.

As for `CCOc1cc([C@@H](C)N(CCCC(F)(F)c2ccccc2)C(=O)NC2(C(=O)O)CC(F)(F)C2)cc(OCC)c1C1CC1` [Example 4-59], the IC50 is 1.62 nM.

As for `CCOc1c(C(C)=O)ccc([C@@H](C)N(CCCC(F)(F)c2ccccc2)C(=O)NC2(C(=O)O)CC(F)(F)C2)c1C` [Example 4-60], the IC50 was 2.9 nM.

For the compound `CCOc1c(C(C)=O)ccc([C@@H](C)N(CCCC(F)(F)c2ccccc2)C(=O)N[C@]2(C(=O)O)C[C@@H](OC)C2)c1C` [Example 4-63], the IC50 was 3.94 nM.

As to `CCOc1cc([C@@H](C)N(CCCC(F)(F)c2ccccc2)C(=O)N[C@]2(C(=O)O)C[C@@H](OC)C2)cc(OCC)c1C(C)=O` [Example 4-64], the IC50 is 2.69 nM.

Turning to `CCOc1cc([C@@H](C)N(CCCC(F)(F)c2ccccc2)C(=O)N[C@]2(C(=O)O)C[C@@H](OC)C2)cc(OCC)c1C(C)=O` [Example 4-65], the IC50 is 5.3 nM.

With `CCOc1cc([C@@H](C)N(CCCC(F)(F)c2ccccc2)C(=O)NC2(C(=O)O)CC(OC)C2)cc(OCC)c1C1CC1` (stereo partly shown) [Example 4-67], the IC50 was 1.27 nM.

With `CCOc1c(C(C)=O)ccc([C@@H](C)N(CCCC(F)(F)c2ccccc2)C(=O)N[C@]2(C(=O)O)C[C@H](OC)C2)c1C` [Example 4-68], the IC50 is 8.85 nM.

In the case of `CCOc1cc([C@@H](C)N(CCCC(F)(F)c2ccccc2)C(=O)N[C@]2(C(=O)O)C[C@@H](OCC)C2)cc(OCC)c1C(C)=O` [Example 4-69], the IC50 was 4.9 nM.

As for `CCOc1c(C(C)=O)ccc([C@@H](C)N(CCCC(F)(F)c2ccccc2)C(=O)NC2(C(C)=O)CC(OCC)C2)c1C` (stereo partly shown) [Example 4-71], the IC50 is 8.06 nM.

Turning to `CCOc1c(C(C)=O)ccc([C@@H](C)N(CCCC(F)(F)c2ccccc2)C(=O)NC2(C(=O)O)CC(OCC)C2)c1C` (stereo partly shown) [Example 4-72], the IC50 is 3.34 nM.

As for `CCOc1cc([C@@H](C)N(CCCC(F)(F)c2ccccc2)C(=O)NC2(C(=O)O)CCOCC2)cc(OCC)c1C(C)=O` [Example 4-73], the IC50 was 3.68 nM.

Turning to `CCOc1cc([C@@H](C)N(CCCC(F)(F)c2ccccc2)C(=O)NC2(C(=O)O)CCOCC2)cc(OCC)c1C1(O)CC1` [Example 4-74], the IC50 was 50.5 nM.

Regarding `CCOc1cc([C@@H](C)N(CCCC(F)(F)c2ccccc2)C(=O)NC2(C(=O)O)CCOCC2)cc(OCC)c1C1CC1` [Example 4-75], the IC50 was 0.992 nM.

In the case of `CCOc1cc([C@@H](C)N(CCCC(F)(F)c2ccccc2)C(=O)NC2(C(=O)O)CCOCC2)cc(OCC)c1C(C)O` (stereo partly shown) [Example 4-76], the IC50 was 10.7 nM.

For the compound `CCOc1cc([C@@H](C)N(CCCC(F)(F)c2ccccc2)C(=O)NC2(C(=O)O)CCOCC2)cc(OCC)c1C(C)O` (stereo partly shown) [Example 4-77], the IC50 is 5.87 nM.

As for `CCOc1c(C(C)=O)ccc([C@@H](C)N(CCCC(F)(F)c2ccccc2)C(=O)NC2(C(=O)O)CCOCC2)c1C` [Example 4-78], the IC50 was 8.44 nM.

In the case of `CCOc1cc([C@@H](C)N(CCC(F)(F)Cc2ccccc2)C(=O)NC2(C(=O)O)CC2)cc(OCC)c1C(C)=O` [Example 4-79], the IC50 is 34.6 nM.

As to `CCOc1cc([C@@H](C)N(CCC(F)(F)Cc2ccccc2)C(=O)NC2(C(=O)O)CC2)cc(OCC)c1C1CC1` [Example 4-80], the IC50 was 23.6 nM.

Consider `CCOc1cc([C@@H](C)N(CCC(F)(F)Cc2ccccc2)C(=O)NC2(C(=O)O)CCC2)cc(OCC)c1C(C)=O` [Example 4-81], for which the IC50 is 7.89 nM.

With `CCOc1cc([C@@H](C)N(CCC(F)(F)Cc2ccccc2)C(=O)NC2(C(=O)O)CCC2)cc(OCC)c1C1CC1` [Example 4-82], the IC50 is 4.1 nM.

On to `CCOc1cc([C@@H](C)N(CCC(F)(F)Cc2ccccc2)C(=O)NC2CC(C(=O)O)C2)cc(OCC)c1C1CC1` (stereo partly shown) [Example 4-83], for which the IC50 was 80.8 nM.

With `CCOc1cc([C@@H](C)N(CCC(F)(F)Cc2ccccc2)C(=O)NC2(C(=O)O)CC(F)(F)C2)cc(OCC)c1C(C)=O` [Example 4-84], the IC50 is 2.88 nM.

As to `CCOc1cc([C@@H](C)N(CCC(F)(F)Cc2ccccc2)C(=O)NC2(C(=O)O)CC(F)(F)C2)cc(OCC)c1C1CC1` [Example 4-87], the IC50 was 2.53 nM.

As for `CCOc1c(C(C)=O)ccc([C@@H](C)N(CCC(F)(F)Cc2ccccc2)C(=O)NC2(C(=O)O)CC(F)(F)C2)c1C` [Example 4-88], the IC50 was 15.4 nM.

In the case of `CCOc1cc([C@@H](C)N(CCC(F)(F)Cc2ccccc2)C(=O)N[C@]2(C(=O)O)C[C@@H](OC)C2)cc(OCC)c1C(C)=O` [Example 4-89], the IC50 is 7.59 nM.

For `CCOc1cc([C@@H](C)N(CCC(F)(F)Cc2ccccc2)C(=O)NC2(C(=O)O)CC(OC)C2)cc(OCC)c1C(C)=O` (stereo partly shown) [Example 4-90], the IC50 was 10.1 nM.

Regarding `CCOc1cc([C@@H](C)N(CCC(F)(F)Cc2ccccc2)C(=O)N[C@]2(C(=O)O)C[C@@H](OC)C2)cc(OCC)c1C1CC1` [Example 4-91], the IC50 is 1.97 nM.

Take `CCOc1cc([C@@H](C)N(CCC(F)(F)Cc2ccccc2)C(=O)NC2(C(=O)O)CC(OCC)C2)cc(OCC)c1C(C)=O` (stereo partly shown) [Example 4-92]: the IC50 is 7.79 nM.

`CCOc1cc([C@@H](C)N(CCC(F)(F)Cc2ccccc2)C(=O)NC2(C(=O)O)CC(OCC)C2)cc(OCC)c1C(C)=O` (stereo partly shown) [Example 4-93]: the IC50 is 10.1 nM.

Turning to `CCOc1cc([C@@H](C)N(CCC(F)(F)Cc2ccccc2)C(=O)NC2(C(=O)O)CC(OCC)C2)cc(OCC)c1C1CC1` (stereo partly shown) [Example 4-94], the IC50 was 3.61 nM.

Regarding `CCOc1cc([C@@H](C)N(CCC(F)(F)Cc2ccccc2)C(=O)NC2(C(=O)O)CCOCC2)cc(OCC)c1C(C)=O` [Example 4-95], the IC50 is 37.4 nM.

`CCOc1cc([C@@H](C)N(CCC(F)(F)Cc2ccccc2)C(=O)NC2(C(=O)O)CCOCC2)cc(OCC)c1C1CC1` [Example 4-96]: the IC50 is 8.25 nM.

For the compound `CCOc1cc([C@@H](C)N(CCO[C@@H](C)c2ccccc2)C(=O)N[C@]2(C(=O)O)C[C@@H](OCC)C2)cc(OCC)c1C(C)=O` [Example 4-97, Trans-1-[([(1R)-1-(4-Acetyl-3,5-Diethoxyphenyl)Ethyl]{2-[(1S)-1-Phenylethoxy]Ethyl}Carbamoyl)Amino]-3-Ethoxycyclobutane-1-Carboxylic Acid], the IC50 is 3.63 nM.

Turning to `CCOc1cc([C@@H](C)N(CCCOc2ccccc2)C(=O)NC2(C(=O)O)CC(F)(F)C2)cc(OCC)c1C` [Example 4-98], the IC50 is 5.48 nM.

On to `CCOc1cc([C@@H](C)N(CCOCc2ccccc2)C(=O)NC2(C(=O)O)CCC2)cc(OCC)c1C(C)=O` [Example 4-101], for which the IC50 was 1.25 nM.

With `CCOc1cc([C@@H](C)N(CCOCc2ccccc2)C(=O)NC2(C(=O)O)CC(F)(F)C2)cc(OCC)c1C(C)=O` [Example 4-102], the IC50 is 0.815 nM.

Take `CCOc1cc([C@@H](C)N(CCOCc2ccccc2)C(=O)NC2(C(=O)O)CC(F)(F)C2)cc(OCC)c1C(C)O` (stereo partly shown) [Example 4-103]: the IC50 was 1.98 nM.

On to `CCOc1cc([C@@H](C)N(CCOCc2ccccc2)C(=O)NC2(C(=O)O)CC(F)(F)C2)cc(OCC)c1C(C)O` (stereo partly shown) [Example 4-104], for which the IC50 is 1.31 nM.

For the compound `CCOc1c(C(C)=O)ccc([C@@H](C)N(CCOCc2ccccc2)C(=O)NC2(C(=O)O)CC(F)(F)C2)c1C` [Example 4-106], the IC50 is 1.04 nM.

As to `CCOc1cc([C@@H](C)N(CCOCc2ccccc2)C(=O)NC2(C(=O)O)CC(OC)C2)cc(OCC)c1C(C)=O` (stereo partly shown) [Example 4-107], the IC50 was 4.08 nM.

Consider `CCOc1cc([C@@H](C)N(CCOCc2ccccc2)C(=O)NC2(C(=O)O)CC(OC)C2)cc(OCC)c1C(C)=O` (stereo partly shown) [Example 4-108], for which the IC50 was 3.6 nM.

In the case of `CCOc1cc([C@@H](C)N(CCOCc2ccccc2)C(=O)NC2(C(=O)O)CC(OCC)C2)cc(OCC)c1C(C)=O` (stereo partly shown) [Example 4-109], the IC50 is 1.59 nM.

With `CCOc1cc([C@@H](C)N(CCOCc2ccccc2)C(=O)NC2(C(=O)O)CCOCC2)cc(OCC)c1C(C)=O` [Example 4-110], the IC50 was 4.31 nM.

As for `CCOc1cc([C@@H](C)N(CCO[C@@H](C)c2ccccc2)C(=O)NC2(C(=O)O)CC2)cc(OCC)c1C(C)=O` [Example 4-111], the IC50 is 3.07 nM.

With `CCOc1cc([C@@H](C)N(CCO[C@@H](C)c2ccccc2)C(=O)NC2(C(=O)O)CC2)cc(OCC)c1C1CC1` [Example 4-112], the IC50 was 1.49 nM.

Turning to `CCOc1c(C(C)=O)ccc([C@@H](C)N(CCO[C@@H](C)c2ccccc2)C(=O)NC2(C(=O)O)CC2)c1C` [Example 4-113], the IC50 was 8.95 nM.

Regarding `CCOc1cc([C@@H](C)N(CCO[C@@H](C)c2ccccc2)C(=O)NC2(C(=O)O)CCC2)cc(OCC)c1C(C)=O` [Example 4-114], the IC50 was 2.54 nM.
